Like-named read-outs stand apart in the source and are kept apart here. Blank lines part the entries; values can stand above or below the molecule they belong to.
Experiments:
[1] = target: T1, PARP-1 enzyme (Homo sapiens, UniProt P09874); test: PARP-1 enzyme activity test (BPS Bioscience chemiluminescence kit); assay type: biochemical
T1 construct: purchased BPS Bioscience
Experimental: PARP-1 chemical […] detection kit was purchased from BPS Bioscience. The histone solution in the kit was diluted 5× with 1×PBS, and 25 μL of the diluted histone solution was added to a microwell plate and incubated overnight at 4° C. After the incubation, the plate was washed three times with PBST (0.05% Tween-20). 100 μL of the blocking solution was added to the microwell plate and incubated at 25° C. for 90 minutes. After the incubation, the plate was washed three times with PBST. 2.5 μL of compounds at different concentrations diluted in test buffer and 12.5 μL of substrate mixed solution (1.25 μL 10× PARP test buffer; 1.25 μL 10× PARP test mixed solution; 2.5 μL Activated DNA, 7.5 μL double-distilled water) were added to the microwell plate. The PARP-1 enzyme was diluted to 2 ng/μL, 10 μL of the diluent was added to the microwell plate, and the reaction system was incubated at 25° C. for 60 minutes.
After the incubation, the plate was washed three times with PBST. Streptavidin-HRP was diluted 50× with a blocking solution, and 25 μL of the diluent was added to the microwell plate and incubated at 25° C. for 30 minutes. After the incubation, the plate was washed three times with PBST. ELISA ECL substrate A and substrate B were mixed at a ratio of 1:1 (v/v), 50 μL of the mixture was added to the microwell plate, and the chemiluminescence value was read.
The inhibition rate was calculated according to formula 1, where RLUsample was the readout of the compound well, RLUmax was the readout of the solvent control well, and RLUmin was the readout of the control well without the PARP-1 enzyme. Curve fitting was performed by four parameters (log (inhibitor) vs. response—Variable slope) using GraphPad Prism software, and the IC50 value was calculated.

[2] = test system: MDA-MB-436 cells; test: MDA-MB-436 cell activity test (CellTiter-Glo, 7 days); assay type: cell-based; details: Homo sapiens; for IC50: MDA-MB-436, 168 h, 7 days incubation; for inhibition at 10 µM: MDA-MB-436 cells, read-out: Max inh. % 10 μM
Experimental: Breast tumor cells MDA-MB-436 were purchased from ATCC, the culture medium was Leibovitz's L-15+10% FBS, and the cells were cultured in a CO2-free incubator at 37° C. On day 1, the cells in the exponential growth phase were collected, and the cell suspension was adjusted to 4000 cells/135 μL with the culture medium. 135 μL of the cell suspension was added to each well of a 96-well cell culture plate and incubated overnight. On day 2, compounds at different concentrations were added, and the plate was placed in the incubator and incubated for 7 days. After the incubation was completed, according to operation instructions for a CellTiter-Glo kit (Promega, G7573), 75 μL of CTG solution, which was already pre-melted and equilibrated to room temperature, was added to each well, and the mixture was uniformly mixed for 2 min using a microplate shaker. The plate was placed at room temperature for 10 min, and then […] were measured using an Envision2104 plate reader (PerkinElmer). The inhibition rate was calculated using formula (1), where RLUcompound was the readout of the drug treated group, RLUcontrol was the average value of the vehicle control group, and RLUblank was the average value of the cell-free well. The IC50 value was calculated using GraphPad Prism software.

[3] = Pharmacokinetic test in mice; assay type: in vivo, ICR mice
Experimental: • 3.1 Experimental animals: male ICR mice, 20-25 g, 18 mice/compound. purchased from Chengdu Ddossy Experimental Animals Co., Ltd. • 3.2 Experimental design: on the day of the test, 18 ICR mice were randomly grouped according to their body weights. the animals were fasted with water available for 12 to 14 h one day before the administration, and were fed 4 h after the administration. [table] Before and after the administration, 0.06 mL of blood was taken from the orbit of the animals under isoflurane anesthesia and placed in an EDTAK2 centrifuge tube. The blood was centrifuged at 5000 rpm and 4° C. for 10 min to collect plasma. The blood collection time points for the intravenous group and intragastric administration group were: 0 min, 5 min, 15 min, 30 min, 1 h, 2 h, 4 h, 6 h, 8 h, and 24 h. Before analysis and detection, all samples were stored at −80° C., and a quantitative analysis of samples was performed using LC-MS/MS.

[4] = Pharmacokinetic test in rats; assay type: in vivo, SD rats
Experimental: • 1.1 Experimental animals: male SD rats, about 220 g, 6-8 weeks old, 6 rats/compound, purchased from Chengdu Ddossy Experimental Animals Co., Ltd. • 1.2 Experimental design: on the day of the test, 6 SD rats were randomly grouped according to their body weight; the animals were fasted with water available for 12 to 14 h one day before the administration, and were fed 4 h after the administration.
Before and after the administration, 0.15 ml of blood was taken from the orbit of the animals under isoflurane anesthesia and placed in an EDTAK2 centrifuge tube. The blood was centrifuged at 5000 rpm and 4° C. for 10 min to collect plasma. The blood collection time points for the intravenous administration group and intragastric administration group were: 0, 5 min, 15 min, 30 min, 1 h, 2 h, 4 h, 6 h, 8 h, and 24 h. Before analysis and detection, all samples were stored at −80° C., and a quantitative analysis of samples was performed using LC-MS/MS.

[5] = grades, read-out: PARP-1 enzyme activity IC50
[6] = values in text, read-out: IC50 values on PARP-1
[7] = male, ICR, mouse, iv, mice, i.v. 2.5 mg/kg, plasma
[8] = male, SD, rat, iv, rats, i.v. 2.5 mg/kg, plasma

T1 sequence (P09874 whole entry): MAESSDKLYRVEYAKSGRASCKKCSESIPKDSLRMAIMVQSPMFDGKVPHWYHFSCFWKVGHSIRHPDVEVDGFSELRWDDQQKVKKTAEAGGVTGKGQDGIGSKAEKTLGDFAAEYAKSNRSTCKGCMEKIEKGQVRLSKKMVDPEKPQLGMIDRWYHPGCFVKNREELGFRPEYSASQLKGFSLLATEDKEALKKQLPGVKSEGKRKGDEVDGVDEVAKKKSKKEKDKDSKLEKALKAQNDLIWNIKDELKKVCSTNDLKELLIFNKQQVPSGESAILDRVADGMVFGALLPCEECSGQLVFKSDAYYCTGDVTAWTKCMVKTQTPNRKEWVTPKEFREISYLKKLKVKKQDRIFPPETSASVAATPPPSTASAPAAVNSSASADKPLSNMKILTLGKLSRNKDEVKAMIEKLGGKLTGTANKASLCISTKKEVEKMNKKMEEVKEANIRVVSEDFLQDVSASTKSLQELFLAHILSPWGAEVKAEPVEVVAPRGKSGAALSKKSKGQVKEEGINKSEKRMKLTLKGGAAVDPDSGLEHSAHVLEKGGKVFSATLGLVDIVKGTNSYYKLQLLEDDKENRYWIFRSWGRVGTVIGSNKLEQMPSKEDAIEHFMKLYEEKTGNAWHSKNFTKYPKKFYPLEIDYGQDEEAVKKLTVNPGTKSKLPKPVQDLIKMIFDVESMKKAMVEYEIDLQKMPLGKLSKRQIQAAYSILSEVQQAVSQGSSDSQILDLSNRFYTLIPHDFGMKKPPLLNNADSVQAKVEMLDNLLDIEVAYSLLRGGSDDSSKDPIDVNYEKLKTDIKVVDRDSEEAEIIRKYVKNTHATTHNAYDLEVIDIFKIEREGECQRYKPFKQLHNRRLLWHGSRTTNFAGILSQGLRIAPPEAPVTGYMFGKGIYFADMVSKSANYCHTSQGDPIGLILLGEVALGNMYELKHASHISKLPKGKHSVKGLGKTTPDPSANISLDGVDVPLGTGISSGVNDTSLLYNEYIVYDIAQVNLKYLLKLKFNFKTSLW

Structure (SMILES): O=C(NC1CC1)c1ccc(C2=CCN(Cc3cnc4cc(C5CC5)c(=O)[nH]c4c3)CC2)cn1 [Compound 3, N-cyclopropyl-1′-((7-cyclopropyl-6-oxo-5,6-dihydro-1,5-naphthyridin-3-yl)methyl)-1′,2′,3′,6′-tetrahydro-[3,4′-bipyridine]-6-carboxamide]
IC50 [1, 5]: ≤ 1 nM | IC50 [1, 6]: 0.6 nM | IC50 [2]: 4.5 nM | inhibition at 10 µM [2]: 82.1% | pharmacokinetic characteristics in mice ([3]; conclusion in words): good pharmacokinetic characteristics | AUC(0-t) [3, 7]: 108 µg·h/mL | clearance [3, 7]: 0.346 mL/min/kg | Vd ([3]; male, ICR, mouse, iv, mice, i.v. 2.5 mg/kg, plasma, read-out: Vdss): 0.207 L/kg | AUC(0-t) ([3]; male, ICR, mouse, po, mice, i.g. 10 mg/kg, plasma): 707 µg·h/mL | F ([3]; mice, i.g. 10 mg/kg): 164%

Structure (SMILES): CNC(=O)c1ccc(N2CCN(Cc3cnc4cc(C5CC5)c(=O)[nH]c4c3)CC2)cn1 [Compound 2, 5-(4-((7-cyclopropyl-6-oxo-5,6-dihydro-1,5-naphthyridin-3-yl)methyl)piperazin-1-yl)-N-methylpicolinamide]
IC50 [1, 5]: ≤ 1 nM | IC50 [1, 6]: 0.9 nM | pharmacokinetic characteristics in rats ([4]; conclusion in words): good pharmacokinetic characteristics | AUC(0-t) [4, 8]: 70.8 µg·h/mL | clearance [4, 8]: 0.585 mL/min/kg | Vd ([4]; male, SD, rat, iv, rats, i.v. 2.5 mg/kg, plasma, read-out: Vdss): 0.169 L/kg | AUC(0-t) ([4]; male, SD, rat, po, rats, i.g. 10 mg/kg, plasma): 206 µg·h/mL | F ([4]; rats, i.g. 10 mg/kg): 72.6% | IC50 [2]: 5.1 nM | inhibition at 10 µM [2]: 86.3%

Structure (SMILES): O=c1[nH]c2cc(CN3CCN(c4cn5cc(C(F)(F)F)nc5cn4)CC3)cnc2cc1C1CC1 [Compound 8, 3-cyclopropyl-7-((4-(2-(trifluoromethyl)imidazo[1,2-a]pyrazin-6-yl)piperazin-1-yl)methyl)-1,5-naphthyridin-2(1H)-one]
IC50 [1, 6]: 1.2 nM | IC50 [2]: 1.1 nM | inhibition at 10 µM [2]: 97.4%

Further molecules by falling IC50 [1, 6], results first:

IC50 [1, 5]: ≤ 1 nM | IC50 [1, 6]: 0.74 nM | IC50 [2]: 5.6 nM
Structure (SMILES): O=C(NC1CC1)c1ccc(N2CCN(Cc3cnc4cc(C5CC5)c(=O)[nH]c4c3)CC2)cn1 [Compound 5, N-cyclopropyl-5-(4-((7-cyclopropyl-6-oxo-5,6-dihydro-1,5-naphthyridin-3-yl)methyl)piperazin-1-yl)picolinamide]
inhibition at 10 µM [2]: 80.7%

IC50 [1, 5]: ≤ 1 nM | IC50 [1, 6]: 0.54 nM | IC50 [2]: 2.8 nM
Structure (SMILES): Cn1cc(NC(=O)c2ccc(N3CCN(Cc4cnc5cc(C6CC6)c(=O)[nH]c5c4)CC3)cn2)cn1 [Compound 6, 5-(4-((7-cyclopropyl-6-oxo-5,6-dihydro-1,5-naphthyridin-3-yl)methyl)piperazin-1-yl)-N-(1-methyl-1H-pyrazol-4-yl)picolinamide]
inhibition at 10 µM [2]: 85.4%

Reference: US20240391937A1, “BICYCLIC DERIVATIVE PARP INHIBITOR AND USE THEREOF” (XIZANG HAISCO PHARMACEUTICAL CO., LTD., priority 2021, published 2024)
